Experimental findings from patent US20250345426A1, “METHODS FOR MAKING AND USING THERAPEUTIC CELLS” (THE REGENTS OF THE UNIVERSITY OF CALIFORNIA, priority 2022, published 2025) are described below.

The subject of one experiment is Raji target cells. Kind of experiment: 24-hr lysis assay of inhibitor-treated rituximab CD20 CAR-T cells against Raji. Format: cell-based. The following applies: three E:T ratios, vs vehicle-treated. The source says:
FIG. 1A-G. Pharmacological inhibition of PI3K/AKT pathway modulates antigen-independent CAR-T cell activation. (A) Table of pharmacological inhibitors used during ex vivo expansion of rituximab CAR-T cells (left). Simplified schematic of the PI3K/AKT signaling axis where black arrows represent activation (right). (B) Activation marker expression by CAR^+ T cells in the absence of antigen stimulation after 5 days of pharmacological modulation. Data bars indicate the means of technical triplicates±1 S.D. The bars in FIG. 1B represent data from, untreated, vehicle, CAL-101, AZD5363, Rapamycin, MYCi975, and Betulin, respectively, from left to right. (C) TNF-α production CAR^+ T cells in the absence of antigen stimulation as quantified by intracellular flow cytometry. Data bars indicate the means of technical triplicates±1 S.D. The bars in FIG. 1B and FIG. 1C represent data from, untreated, vehicle, CAL-101, AZD5363, Rapamycin, MYCi975, and Betulin, respectively, from left to right. (D) Proliferation of CAR^+ T cells stained with CellTrace Violet (CTV) dye was assayed after a 4-day culture in the absence of target cells or exogenous cytokines. Data shown in the histogram correspond to one of technical triplicates shown in the bar graph. The bars FIG. 1D represent data from, EGFRt, untreated, vehicle, CAL-101, AZD5363, Rapamycin, MYCi975, and Betulin, respectively, from left to right. (E) % distribution of T-cell subtypes in CAR^+ T cells after 5 days of pharmacological modulation. Data bars indicate the means of technical triplicates±1 S.D. (F) Rituximab CAR-T cell fold expansion after 6 days of inhibitor culture was tracked. […] Statistical significance in panels B, C, and D was determined by two-tailed Student's t test with Sidak correction for multiple comparisons. * p<0.05, ** p<0.01, *** p<0.001, n.s. not statistically significant.
Cytotoxicity assay with Raji cells. […] Remaining target cells were quantified by MACSQuant VYB flow cytometer 24-hr post co-incubation.

A further experiment concerns Raji lymphoma. As to the kind of experiment: Raji lymphoma model in NSG mice treated with inhibitor-treated Leu16 CAR-T cells. Format: in vivo. The following applies: Raji i.v., two doses of inhibitor-treated Leu16 CAR-T cells, vs vehicle-treated. The text has this:
FIG. 3A-G. Pharmacological modulation of Leu16 CAR-T cells modestly dampens tonic signaling while enhancing anti-tumor efficacy. (A) Pictorial representation of the correlation between tonic signaling-modulated rituximab CAR-T cells and in vivo anti-tumor efficacy. (B) Pictorial representation of pharmacological modulation strategy aimed to either increase or decrease Leu16 CAR tonic signaling; c-MYC (MYCi975) and SREBP (betulin) inhibition increased tonic signaling whereas mTORC1 (rapamycin) inhibition decreased tonic signaling in rituximab CAR-T cells. (C) % distribution of T-cell subtypes in CAR^+ T cells after 6 days of pharmacological modulation (left) and Tn/scm enrichment (right). The bars in FIG. 3C, right graph, represent data from, EGFRt, Leu16-28z (vehicle), Leu16-28z (MYCi975), Leu16-28z (Betulin), and Leu16-28z (Rapamycin), respectively, from left to right. (D) Activation and exhaustion marker expression by CAR^+ T cells in the absence of antigen stimulation after 6 days of pharmacological modulation. […] (F) Tumor signal (in photons/sec/cm2/sr) in individual animals as quantified by bioluminescence imaging. […]
In vivo studies. […] Tumor progression/regression was monitored with an IVIS Illumina III LT Imaging System (PerkinElmer). […]

Take `C=C(C)[C@@H]1CC[C@]2(CO)CC[C@]3(C)[C@H](CC[C@@H]4[C@@]5(C)CC[C@H](O)C(C)(C)[C@@H]5CC[C@]43C)[C@@H]12` [betulin, Betulin]: in the experiment on Raji target cells, the “lysis of Raji tumor cells” value is “clustered together”. Also, the “in vivo functionality: tumor control and survival” value in the experiment with Raji lymphoma is “prolonged tumor control and survival”.
For the molecule MYCi975, the “lysis of Raji tumor cells” value with Raji target cells is listed as “clustered together”.
